Laboratory results published in patent publication US20120190656A1, “METHODS FOR SELECTING […] TO IMPROVE HDL CHOLESTEROL AND TR[…]” (priority 2010, published 2012).

What was measured:
[1] = test system: triglyceride levels; experiment: Population studies (collective sample), maximum likelihood models of triglycerides versus vitamin D intake and genotype; format: in vivo, human
Procedure: (§1) Study populations. Factors associated with cardiovascular disease were analyzed using samples from an Aging study population from Utah (“Aging” or “Utah” sample), which included approximately 2500 subjects in 98 Utah pedigrees with 2 or more probands such as, e.g., early stroke, coronary heart disease death, or hypertension. Details regarding subject selection have been previously published. See Williams et al., Recruitment of members of high-risk Utah pedigrees. Control Clin Trials 8: 105S-114S (1987); see also Table 2 below. Additional follow-up assessments were performed, where a validated dietary survey was administered, lipid profiles were determined, DNA was obtained, and standard cardiovascular risk factors were measured. See Hunt et al., Predictors of an increased risk of future hypertension in Utah. A screening analysis. Hypertension 17: 969-976 (1991). In some of the following examples results are described for subjects selected from the foregoing population, wherein samples were excluded if they lacked data relating to complete lipid profiles, genetic polymorphism data, or dietary survey data (n=1060 subjects in 96 families for HDL analysis, and n=1057 subjects in 70 families for triglyceride analysis).
(§2) A replication cohort, moreover, consisted of 5243 caucasian subjects from the NHLBI Family Heart Study (“FamHS” or “FHS” sample), which were not previously administered cholesterol modifying medications. Data for these subjects included lipid profiles and genetic analyses, as described. See Heard-Costa et al., NRXN3 is a novel locus for waist circumference: a genome-wide association study from the CHARGE Consortium. PLoS Genet 5: e1000539 (2009). These population-based families were gathered as part of four studies: the Framingham Heart Study, the Utah Family Tree Study, and ARIC centers in Minneapolis and Forsyth County, N.C. (n=2890 individuals in 504 families; see Table 2 for sample characteristics).
(§3) Both the Aging and FamHS samples were subdivided by season (see Table 2) when measuring both diet and lipids levels. Winter subsamples included data analyzed from November to March and consisted of 362 Aging subjects and 1006 FamHS subjects as shown below in Table 2. Because HDL and triglyceride levels are inversely correlated, vitamin D-triglyceride interactions were also measured from the foregoing samples, as further described below.
(§4) Dietary questionnaire and winter subsamples. Vitamin D intake was measured both in the Aging and FHS samples via a staff-administered semi-quantitative food frequency questionnaire with reproducibility and validity. See, e.g., Willett et al., Reproducibility and validity of a semiquantitative food frequency questionnaire. Am J Epidemiol 122: 51-65 (1985). […] See Jacques et al., Comparison of micronutrient intake measured by a dietary questionnaire and biochemical indicators of micronutrient status. Am J Clin Nutr 57: 182-189 (1993).
(§5) Accordingly, the Aging and FHS studies were subdivided into seasonal and lipid measurement cohorts, both of which occurred at the same clinic visit for the subject.
(§6) Study design and analysis for the aging and FHS samples. jPAP software (see Hasstedt et al., jPAP: Document-driven software for genetic analysis. Genet Epidemiol 29 (2005)), was employed for maximum likelihood analysis, correction of potential covariates, and to estimate heritability attributable to gene-environment interaction factors (interaction) measured as changes in estimated polygenic variance. Natural log transformed HDL was employed as the dependent variable, and all maximum likelihood models included age, sex, and log transformed BMI as baseline covariates. […] Analyses were performed separately for the entire Aging sample and the Aging winter subsample. The results were confirmed using the FHS sample population. […]

[2] = test system: HDL levels; experiment: Population studies (Aging, FHS, collective sample), maximum likelihood models of HDL versus vitamin D intake and genotype; format: in vivo, human; conditions: for increase of HDL: vitamin D deficient subjects, retrospective studies
Procedure: as §1, §2, §3, §4, §5, §6

[3] = wintertime vitamin D intake raised from 50 IU to 550 IU, heterozygous G/C at rs3135506, model estimate
[4] = wintertime vitamin D intake raised from 50 IU to 550 IU, homozygous C/C at rs3135506, model estimate

In the case of `C=C1/C(=C\C=C2/CCC[C@]3(C)[C@@H]([C@H](C)CCCC(C)(C)O)CC[C@@H]23)C[C@@H](O)C[C@@H]1O` [vitamin D, 1,25-dihydroxyvitamin D3], the “effect of vitamin D on triglyceride levels” value ([1]; collective sample, entire, patients with rs3135506 polymorphism, p=0.33) is reported as “did not have a significant effect”, the “decrease of triglyceride levels” value ([1]; vitamin D deficient subjects, heterozygous for a vitamin D sensitive allele, retrospective studies) is reported as 5% and the “decrease of triglyceride levels” value ([1]; vitamin D deficient subjects, homozygous for a vitamin D sensitive allele, retrospective studies) is reported as 10%. For the same compound, the “decrease of triglyceride levels” value [1, 3] was 50 mg/dL, the “decrease of triglyceride levels” value [1, 4] was 125 mg/dL and the increase of triglycerides ([1]; wintertime vitamin D intake raised from 50 IU to 550 IU, homozygous G/G at rs3135506 (wild-type), model estimate) was 2 mg/dL. For the same compound, the “association of vitamin D alone with HDL levels” value ([2]; FHS study population, entire sample) was “not associated with an increase in patient HDL levels”, the “increase of HDL” value ([2]; heterozygous for a vitamin D sensitive allele) was 5% and the “increase of HDL” value ([2]; homozygous for a vitamin D sensitive allele) was 10%. For the same compound, the “increase of HDL cholesterol” value [2, 3] was “approximately 10 mg/dL”, the “increase of HDL cholesterol” value [2, 4] was “approximately 20 mg/dL” and the “decrease of HDL cholesterol” value ([2]; wintertime vitamin D intake raised from 50 IU to 550 IU, homozygous G/G at rs3135506, model estimate) was “approximately 0.5 mg/dL”.
